According to EP0007398A1, “N-thio-N-methyl carbamic acid derivative, process for its preparation, its application and pesticides containing it” (priority 1978, dated 1980):
Like-named read-outs stand apart in the source and are kept apart here.

How the values were obtained:
[1] = system: Aedes aegypti, Gelbfiebermücke; experiment: Initial activity in water against larvae; format: in vivo; details: 168 h
Method: Testinsekt: Aedes aegypti, Gelbfiebermücke Testmethode: Initialwirkung im Wasser
0,2 ml acetonische Wirkstofflösung werden mit 20 ml Leitungswasser gemischt. Pro Parzelle werden 10 Larven im letzten Larvenstadium angesetzt und bei 25°C und 60% rel. Feuchtigkeit inkubiert bis zum Schlüpfen der Adulten in den Kontrollparzellen. Unbehandeltc und mit Aceton behandelte Parzellen dienen als Kontrollen. Testdauer: 7 Tage. Die Wirkung wird ausgedrückt als prozentuale Reduktion der Zahl normaler Adulter im Vergleich zu den Kontrollparzellen.

Water solubility = format: physicochemical; details: qualitative statement
From the text: Die Verbindung der Formel I ist wasserunlöslich und kann nach irgendeiner der für unlösliche Verbindungen üblichen Methoden konfektioniert werden.

[2] = Acute oral toxicity in the mouse; details: in vivo, Maus, read-out: akute orale Toxizität
Method: Die Verbindung wirkt als direktes Insektizid. Sie hat auch systemische Aktivität. Sie zeichnet sich unter Praxisbedingungen durch eine besonders günstige Wirkungsdauer aus. Die Verbindung ist ferner von Wert für die Bekämpfung von Schädlingen bei Tieren. So zeigt beispielsweise die Verbindung der Formel I in einer Konzentration von 10^-7 g/ml im Test gegen Aedes aegypti eine Wirkung von 100%. Die akute orale Toxizität an der Maus beträgt mehr als 1000 mg/kg.

[3] = system: Leptinotarsa decemlineata, Kartoffelkäfer; experiment: Initial activity on potato leaf discs; format: in vivo; details: foliar, 96 h, read-out: % Wirkung
Method: Testinsekt: Leptinotarsa decemlineata, Kartoffelkäfer Testmethode: Initialwirkung auf Blattrondellen
Kartoffelblattrondellen werden mit acetonischer Wirk- stofflösung besprüht. Pro Rondelle werden 5 frischgeschlüpfte Larven des ersten Stadiums angesetzt und bei 25°C und 60% rel. Feuchtigkeit inkubiert. Unbehandelte und mit Aceton behandelte Blattrondellen dienen als Kontrolle. Testdauer: 4 Tage. Die Resultate werden ausgedrückt als prozentuale Reduktion der Ueberlebensrate der Larven im Vergleich zu den Kontrollparzellen.

UV stability = format: physicochemical; details: qualitative statement
[4] = system: Leptinotarsa decemlineata, Kartoffelkäfer; experiment: Persistence test on treated potato plants (7 days at 30°C with UV irradiation before infestation); format: in vivo; details: 168 h, wettable powder per Beispiel 2, 7 days 30°C + UV, then 10 first-instar larvae per plant, reduction of survival rate vs control, read-out: % Wirkung
Method: Testinsekt: Leptinotarsa decemlineata, Kartoffelkäfer Testmethode: Persistenztest
(§1) Kartoffelpflanzen werden bis zum Abtropfen behandelt. Nach dem Antrocknen werden die Pflanzen in einem Ecophyten bei 30°C und UV-Bestrahlung während 7 Tagen inkubiert. Nach der Inkubation werden pro Pflanze 10 Larven des ersten Stadiums angesetzt. Die Resultate werden ausgedrückt als prozentuale Reduktion der Ueberlebensrate der Leptinotarsa-Larven im Vergleich zu den Kontrollparzellen.
Die Formulierung der Wirkstoffe erfolgte gemäss Beispiel 2 ai = Wirkstoff

[5] = system: Epilachna chrysomelina, Gurkenkäfer; experiment: Persistence test on treated pumpkin plants (7 days at 30°C with UV irradiation before infestation); format: in vivo; details: 168 h, wettable powder per Beispiel 2, 7 days 30°C + UV, then 10 first-instar larvae per plant, reduction of survival rate vs control, read-out: % Wirkung
Method: Testinsekt: Epilachna chrysomelina, Gurkenkäfer Testmethode: Persistenztest
as §1, with “Kürbispflanzen” for “Kartoffelpflanzen”, “Epilachna-Larven” for “Leptinotarsa-Larven”
Die Formulierung der Wirkstoffe erfolgte gemäss Beispiel 2. ai = Wirkstoff

Work on `CN(SN(C)C(=O)Oc1cccc2c1OC(C)(C)O2)C(=O)Oc1cccc2c1OC(C)(C)O2` [Formel I, Bis-[2,3-(isopropylidendioxy)-phenyl]-thio-bis-N-methylcarbamat] yielded a mortality at 0.01 µg/mL ([1]; read-out: % Wirkung) of 13%, a mortality at 0.1 µg/mL ([1]; read-out: % Wirkung) of 100% and a mortality at 1 µg/mL ([1]; read-out: % Wirkung) of 100%. The mortality at 0.1 µg/mL ([1]; read-out: Wirkung) was 100%, the Wasserlöslichkeit (Water solubility) was “wasserunlöslich” and the LD50 [2] was greater than 1000 mg/kg. It also gave a mortality at 1e-09 g/cm2 [3] of 0%, a mortality at 1e-08 g/cm2 [3] of 79% and a mortality at 1e-07 g/cm2 [3] of 100%. The UV-Stabilität (UV stability) was “hohe UV-Stabilität”.

Work on `CNC(=O)Oc1cccc2c1OC(C)(C)O2` [Formel II] yielded a mortality at 0.01 % ([4]; Konz. 0,01 % ai) of 5%, a mortality at 0.03 % ([4]; Konz. 0,03 % ai) of 95% and a mortality at 1 µg/mL ([1]; Dosis 10^-6 g ai/ml Wasser, last-instar larvae, 25°C, 7 days, reduction of number of normal adults vs control, read-out: % Wirkung) of 100%. The mortality at 0.1 µg/mL ([1]; Dosis 10^-7 g ai/ml Wasser, last-instar larvae, 25°C, 7 days, reduction of number of normal adults vs control, read-out: % Wirkung) was 2%, the mortality at 0.01 µg/mL ([1]; Dosis 10^-8 g ai/ml Wasser, last-instar larvae, 25°C, 7 days, reduction of number of normal adults vs control, read-out: % Wirkung) was 0% and the mortality at 0.01 % ([5]; Konz. 0,01 % ai) was 30%. For the same molecule, the mortality at 0.03 % ([5]; Konz. 0,03 % ai) was 100%, the mortality at 1e-07 g/cm2 ([3]; Dosis 10^-7 g ai/cm^2, acetone solution, first-instar larvae, 25°C, 60% rel. humidity, 4 days, reduction of survival rate vs control) was 100% and the mortality at 1e-08 g/cm2 ([3]; Dosis 10^-8 g ai/cm^2, acetone solution, first-instar larvae, 25°C, 60% rel. humidity, 4 days, reduction of survival rate vs control) was 8%. The mortality at 1e-09 g/cm2 ([3]; Dosis 10^-9 g ai/cm^2, acetone solution, first-instar larvae, 25°C, 60% rel. humidity, 4 days, reduction of survival rate vs control) was 0%.
